# Key:
# [1] = male, human, in vivo, po
# [2] = Pharmacokinetics of multiple oral doses once daily for 12 days in patients with type 2 diabetes
compound,measurement,setting,value
CC#CCn1c(N2CCC[C@@H](N)C2)nc2c1c(=O)n(Cc1nc(C)c3ccccc3n1)c(=O)n2C [BI 1356],excreted unchanged in urine and feces,[1],90 % of excreted radioactivity
same,parent compound share of sample radioactivity in plasma,[1],74 % of sample radioactivity
same,excretion route and form,"[2]; human, in vivo",primarily excreted unchanged via the bile
same,main excretion organ,[2]; therapeutic oral dose levels,mainly excreted via the liver

# Source: patent publication US8853156B2, “Treatment for diabetes in patients inappropriate for metformin therapy” (Boehringer Ingelheim International GmbH, priority 2008, dated 2014)
